Reference: paper PMC10818749, “Toxicity Studies of Cardiac-Targeting Peptide Reveal a Robust Safety Profile” (Pharmaceutics, 2024)
Ends that are not written are not given here.

How the values were obtained:
[1] = system: human left ventricular myocyte cell line; test: Fluorescence-activated cell sorting (FACS) live-dead viability; format: cell-based; details: 10 µM, 30 min incubation, live-dead stain, biological triplicates and technical quadruplicates (n = 4), vs no treatment or vehicle
Experimental: Fluorescence-Activated Cell Sorting Assays: CTP was tested in a human left ventricular myocyte cell line (Celprogen, Torrance, CA, USA; cat #36044-15) for uptake and assessment of its effects on cell viability. Cells were plated onto 6-well plates at a density of 100,000 cells per well and incubated overnight at 37 °C/5% CO2. The following day media was replaced with fresh media containing 10 µM CTP-Cy5.5, or a random (RAN-CY5.5) peptide. A yellow live-dead stain (Invitrogen, Carlsbad, CA, USA; cat #L34968) was added to all wells, including the negative control or vehicle only treated controls, and cells were incubated for 30 min, after which media aspirated, cells washed 3× with pre-warmed phosphate-buffered saline (PBS), trypsinized, and collected. After collection, cells were washed once with PBS, fixed with 2% paraformaldehyde at room temperature for 10 min, washed once again and resuspended in 1000 µL of PBS. Fluorescence activated cell sorting (FACS) was performed using lasers selected for live-dead and Cy5.5 fluorophores, and 10,000 cells counted in Fortessa. The data generated were gated on the presence of the live-dead stain providing the percent viability of cells [(live/(live + dead cells)) × 100] after treatment with various peptides.

GABAA = GABAA ion channel assay; format: cell-based; details: FLIPR Tetra, up to 30 µM, read-out: RC50 (the source's name)
Experimental: Ion Channel Assays: Cell lines were grown, plated, and loaded with 1× loading buffer containing 1× dye and 2.5 mM freshly prepared probenecid. Assays were performed, and activity was measured using a FLIPR Tetra. Percent of activation and percent of inhibition were calculated to determine agonist and antagonist activity, respectively. […]
in complementation with EA generating a unit of active β-gal and based assay for the detection of dopamine, norepinephrine or sero-production of a chemiluminescent signal upon the addition of Path- tonin transporter activity in cells expressing these transporters. The Hunter detection reagents. kit employs a fluorescent substrate that mimics the biogenic amine neurotransmitters that are taken into the cell through these specific transporters, resulting in increased intracellular fluorescence inten-sity. […]
KINOMEscan® Assay fluorescence for improved signal/noise ratio. […]
Compounds that bind the kinase active site and directly (sterically) be monitored within a single experiment. or indirectly (allosterically) prevent kinase binding to the immobi-lized ligand, will reduce the amount of kinase captured on the solid Calcium Assay […]
kinase have no effect on the amount of kinase captured on the of changes in intracellular calcium. […] In a similar manner, dissociation con- an increase of dye fluorescence. […]

[2] = system: CD1, wild type, adult mice; test: Cardiac MRI pre- and post-CTP injection; format: in vivo, mouse; details: male or female mice; immediately after CTP 150 µg/Kg i.v.; vs baseline
Experimental: Cardiac Function Studies, Pre- and Post-Injections: Six CD1, wild type, 6–8-week-old adult mice were obtained from the Charles River and used for cardiac MRI studies. Mice were weighed, anesthetized with 2.5% isoflurane, and ear tags removed before being inserted into the MRI scanner. A baseline cardiac MRI was performed, followed by intravenous CTP injection (150 µg/Kg). Post-injection, a second cardiac MRI was performed.

APWHLSSQYSRT [CTP]
cell viability [1]: remained unchanged | EC50 (GABAA; agonist (opener)): > 30 µM | IC50 (GABAA; antagonist (blocker)): > 30 µM | cardiac output [2]: no significant change | ejection fraction [2]: no significant change | heart rate [2]: no significant change | left ventricular mass [2]: no significant change
